The text below walks through data of ChEMBL document CHEMBL1157539, “Thousands of chemical starting points for antimalarial lead identification” (Nature, 2010).

The assay has as its system Plasmodium falciparum. The experiment in a line: GSK_TCMDC: Inhibition of Plasmodium falciparum 3D7 in whole erythrocytes, using parasite LDH activity as an index of growth. In kind it is functional, organism-based. The following applies: Plasmodium falciparum, 3D7.
The molecule `CCN1CCC(N(Cc2ccc(-c3ccc(C(F)(F)F)cc3)cc2)C(=O)Cn2c(CCc3cccc(F)c3F)cc(=O)c3ccccc32)CC1` yielded an XC50 of 0.832 µM.
Next, `CCNC(C)(C)CN(Cc1ccc(-c2ccc(C(F)(F)F)cc2)cc1)C(=O)Cn1c(SCc2ccc(F)cc2)nc(=O)c2c1CCC2`: 0.991 µM.
With `CCN1CCN(c2ccc(Nc3c4ccccc4nc4ccccc34)cc2)CC1`, the XC50 is 0.718 µM.
Next, `Cc1[nH]c(C)c(-c2ccc(-c3ccc(Cl)cc3)cc2)c(=O)c1Cl`: 0.215 µM; `CC(C)(C)c1ccc(CN2CCC(NC(=O)c3ccc(-c4cccc(F)c4)s3)CC2)cc1`: 1.09 µM; `O=c1c2ccc(F)cc2sn1-c1ccc(Cl)cc1`: 1.15 µM.
Next, `COc1ccc(O)cc1/C=N/Nc1ccnc2cc(Cl)ccc12`: 0.544 µM; `O=c1[nH]c2c(cc1CNC1CCCCC1)c(-c1cccc(F)c1)nn2-c1ccccc1`: 0.945 µM.
As for `O=c1cc(NCCCCNCc2cccc(Br)c2)[nH]c2ccccc12`, the XC50 turned out to be 0.729 µM.
The result for `CN1CCN(CCCN(Cc2cccc(-c3ccc(CNCc4ccc5c(c4)OCO5)cc3)c2)C(=O)Nc2ccccc2)CC1` reads 0.681 µM; that for `CC(C)CNC(=O)c1cncc(-c2ccc(CNC3Cc4ccccc4C3)cc2)c1`, 0.698 µM; that for `O=C(Cc1ccc(NC(=O)c2ccc(O)c(-c3ccc(Cl)c(Cl)c3)c2)cc1)NCCc1ccc(Cl)c(Cl)c1`, 0.717 µM.
`CCCCCCCc1c(C)nc2ccccc2c1O` showed an XC50 of 0.206 µM.
Next, `Fc1ccc2[nH]c(-c3cccc(-c4ccc(CN5CCC(CCN6CCCCC6)CC5)cc4)c3)nc2c1`: 0.142 µM; `O=C(NCC(c1ccc(C(F)(F)F)cc1)N1CCCC1)c1cc(-c2ccncc2)c(-c2cccc(O)c2)o1` (stereo not drawn): 1.06 µM.
The molecule `COc1cccc(-c2cnc(N)c(-c3nc4ccc(F)cc4[nH]3)c2)c1` returned an XC50 of 0.85 µM.
The result for `O=C(Nc1cccc(Cl)c1)c1cnc(N2CCN(c3ccncc3)CC2)c(Cl)c1` reads 0.963 µM; that for `Oc1ccc2nc(NCCCc3ccccc3)nc(NCCCc3ccccc3)c2c1`, 0.398 µM.
Take `O=C(NCCN1CCCCC1)c1ccc(CNC(=O)c2ccc(O)c(-c3cccc(C(F)(F)F)c3)c2)cc1`: the XC50 was determined as 0.886 µM.
Consider `O=C(/C=C/c1ccc(Cl)c(Cl)c1)NCCCCCN1CCC(NC(=O)Nc2ccc(F)c(F)c2)CC1`, for which the XC50 is 0.842 µM.
Next, `CCCc1cc(Cc2cnc(N)nc2N)cc2c1OC(C)(C)C2`: 1.08 µM; `O=C(Nc1ccc(-c2ccc(-c3nc4ccccc4[nH]3)s2)cc1)Nc1ccc(F)c(F)c1F`: 0.194 µM; `Oc1ccccc1CN1CCCC(COC(c2ccc(F)cc2)c2ccc(F)cc2)C1` (stereo not drawn): 0.775 µM.
The result for `CCCNC(=O)c1ccnc(-c2ccc(CNC3Cc4ccccc4C3)cc2)c1` reads 0.94 µM; that for `COc1ccccc1CCNc1nc(C)cc(N[C@@H](CC(C)C)C(=O)Nc2ccccc2)n1`, 1.28 µM.
Next, `COc1cc(CN/C(=N/c2ccc(-c3ccccc3)cc2)Nc2ccc(C#N)cc2O)cc(OC)c1`: 0.718 µM; `COc1cc2c(C3CCN(CC4CCN(C(=O)/C=C/c5ccc(Cl)c(Cl)c5)CC4)CC3)c[nH]c2cn1`: 0.73 µM; `CCCN(CCC)C(=O)c1cc(C(=O)N[C@@H](Cc2ccccc2)[C@H](O)CNC(C)(C)c2cccc(C(F)(F)F)c2)cc(N2CCCCS2(=O)=O)c1`: 0.0362 µM.
In the case of `CCC1CN2CCc3c([nH]c4ccccc34)C2CC1CC1NCCc2cc(OC)c(OC)cc21` (stereo not drawn), the XC50 turned out to be 0.836 µM.
The molecule `CCCc1cc(Cc2cnc(N)nc2N)cc2c1OC(C)C2C` (stereo not drawn) registered an XC50 of 0.673 µM.
Next, `CCCNCc1ccc(-c2ccc(CN(Cc3ccc4c(c3)OCO4)C(=O)Cc3cccnc3)cc2)nc1`: 0.862 µM.
Next, `OC(CNC1CCCCC1)Cn1c2ccccc2c2ccccc21` (stereo not drawn): 0.991 µM.
With `CCOc1ccc(Cc2c(C)nc3nc(N)nc(N)c3c2C)cc1`, the XC50 was 1.06 µM.
Molecule `COc1ccc(Oc2ccc(-c3c(C)[nH]c(C)c(Cl)c3=O)cc2)cc1` yielded an XC50 of 0.135 µM.
The molecule `NS(=O)(=O)c1ccccc1Nc1nc(Nc2ccc(N3CCOCC3)cc2)nc2c1CCC2` registered an XC50 of 0.667 µM.
The result for `CC(C)(C)c1ccc2[nH]c(-c3ccc(C(=O)NC4CCN(Cc5ccccc5)CC4)s3)nc2c1` reads 0.359 µM; that for `Clc1ccc(CNCCCCCCCNCc2ccc(Cl)c(Cl)c2)cc1Cl`, 0.372 µM; that for `COc1cccc2cc(C(=O)N[C@@H](CC(C)C)C(=O)N[C@H](/C=N/NC(=O)Cc3cccnc3)CCc3ccccc3)oc12`, 0.951 µM.
The result for `Cc1c(CCNC(=O)CCCN2CC(C)CC(C)C2)c2ccccc2n1C` (stereo not drawn) reads 1.27 µM.
The result for `CCCNc1nc(NCc2c(C)cccc2C)nc(NC(C)(C)C)n1` reads 0.862 µM; that for `CCCCN1CC[C@@H](CCC(O)c2cc(OCCC)nc3ccc(OC)cc23)[C@@H](CC)C1` (stereo partly drawn), 0.356 µM.
In turn, `CC(C)c1ccc(Nc2nc(NCCc3c[nH]cn3)nc(NCc3ccccc3)n2)cc1` displayed an XC50 of 0.687 µM.
The result for `Cn1ncc2c3c(CCN4CCC(NCc5cc6c(cn5)OCCO6)CC4)c(Cl)cnc3ccc21` reads 0.775 µM; that for `Cc1cc(N[C@@H](Cc2ccccc2)C(=O)NCCCOC(C)C)nc(NCC2CCCCC2)n1`, 0.875 µM.
With `Cc1ccc(NC(=O)Nc2ccc(S(=O)(=O)c3ccc(NC(=O)Nc4ccc(C)c(Cl)c4)cc3)cc2)cc1Cl`, the XC50 was determined as 0.754 µM.
`Cc1cc(CNCCCCCCNCc2ccc(-c3ccccc3)cc2)ccc1O` gave an XC50 of 0.897 µM.
The result for `Cc1[nH]cnc1CSCCN/C(=N\C#N)NCCCCCCCCN/C(=N/C#N)NCCSCc1nc[nH]c1C` reads 1.27 µM; that for `CCOCc1cnc(C)nc1CNC(=O)c1c(C)[nH]c2ccc(C)cc12`, 1.01 µM.
Next, `COc1cccc(NC(=O)[C@H](C)n2c(=O)[nH]c3ccccc3c2=O)c1`: 0.764 µM; `O=S(=O)(NC1=NCCC1)c1cccc(Nc2nc(C(F)(F)F)nc3ccccc23)c1`: 0.945 µM.
The result for `Cc1ccc(CCC(C)NCC(O)c2cccc(Cl)c2)cc1` (stereo not drawn) reads 0.804 µM; that for `COc1cccc(NC(=O)Nc2ccc(C)c(-c3ccc(C(=O)Nc4ccncc4)cc3)c2)c1`, 0.52 µM; that for `COc1c(C2CCN(CCCCNC(=O)c3cccc(-c4ccc(C(F)(F)F)cc4)c3)CC2)ccc2c1CCCC2`, 0.777 µM.
The molecule `Cc1cccc2nc(-c3cccc(-c4cccc(NC(=O)c5csnn5)c4)c3)[nH]c12` returned an XC50 of 0.304 µM.
Consider `CN1CCCC(OC(=O)c2ccccc2)C1` (stereo not drawn), for which the XC50 is 0.756 µM.
The result for `COc1ccccc1NC(=O)NC1CCN(CCCCCNC(=O)/C=C/c2ccc(Cl)c(Cl)c2)CC1` reads 0.746 µM; that for `Cc1ccc(CNC(=O)[C@H](CC(C)C)Nc2cc(C)nc(NCc3ccccc3C)n2)cc1`, 0.952 µM.
The result for `Cc1ccc2c(O)c([N+](=O)[O-])c(O)nc2c1` reads 0.422 µM; that for `CC(C)CCNc1nc(NCCCc2ccccc2)c2cc(O)ccc2n1`, 0.166 µM.
The result for `CN1CCC(Oc2ccc(CN3CC[C@H](NC(=O)c4ccc(Cl)c(Cl)c4)C3)c3ccccc23)C1` (stereo partly drawn) reads 0.876 µM; that for `CCc1ccc(NC(=O)c2ccc(CN3CCCN(Cc4ccc(C)s4)CC3)cc2)cc1`, 1.15 µM.
In the case of `COc1ccc(O)cc1Cc1cnc2nc(N)nc(N)c2c1C`, the XC50 amounted to 0.00825 µM.
Next, `Nc1nc(N)c2cc(Sc3ccc4ccccc4c3)ccc2n1`: 0.0171 µM.
